From the NIST ThermoML archive (doi:10.1021/acs.jced.6b00577)

Settings: Liquid, Frequency=8 MHz, Pulse-echo method

CCCC [butane]
Settings	speed of sound [m/s]
380 K, 6106.7 kPa	563.62
380 K, 7107.5 kPa	584.62
380 K, 8108.3 kPa	604.2
380 K, 9109.1 kPa	622.6
380 K, 10110 kPa	639.98
380 K, 12611 kPa	679.85
380 K, 15113 kPa	715.71
380 K, 17614 kPa	748.49
380 K, 20116 kPa	778.8
380 K, 25120 kPa	833.69
380 K, 30123 kPa	882.73
380 K, 35127 kPa	927.32
380 K, 40132 kPa	968.4
380 K, 45135 kPa	1006.6
380 K, 50139 kPa	1042.4
380 K, 60146 kPa	1108.3
380 K, 70153 kPa	1167.9
380 K, 80160 kPa	1222.7
380 K, 90167 kPa	1273.5
380 K, 100174 kPa	1321.1
400 K, 2704.8 kPa	329.55
400 K, 3105.1 kPa	351.68
400 K, 4105.8 kPa	396.18
400 K, 5106.4 kPa	431.84
400 K, 6107 kPa	462.27
400 K, 7107.7 kPa	489.16
400 K, 8108.4 kPa	513.44
400 K, 9109.4 kPa	535.71
400 K, 10110 kPa	556.36
400 K, 12612 kPa	602.56
400 K, 15114 kPa	643.08
400 K, 17616 kPa	679.47
400 K, 20118 kPa	712.7
400 K, 25121 kPa	772.06
400 K, 30125 kPa	824.41
400 K, 35128 kPa	871.59
400 K, 40132 kPa	914.76
400 K, 45135 kPa	954.73
400 K, 50138 kPa	992.04
400 K, 60145 kPa	1060.3
400 K, 70152 kPa	1121.8
400 K, 80159 kPa	1178.1
400 K, 90166 kPa	1230.3
400 K, 100173 kPa	1278.9
420 K, 4104.4 kPa	244.51
420 K, 4455.2 kPa	271.52
420 K, 4605 kPa	281.85
420 K, 4955.6 kPa	302.47
420 K, 5105.1 kPa	310.48
420 K, 5456.1 kPa	327.76
420 K, 5605.7 kPa	334.63
420 K, 6105.8 kPa	355.8
420 K, 6606.5 kPa	374.83
420 K, 7106.5 kPa	392.2
420 K, 8107.2 kPa	423.27
420 K, 9108 kPa	450.7
420 K, 10109 kPa	475.45
420 K, 12611 kPa	529.12
420 K, 15112 kPa	574.77
420 K, 17615 kPa	614.98
420 K, 20117 kPa	651.2
420 K, 25120 kPa	714.99
420 K, 30124 kPa	770.53
420 K, 35127 kPa	820.17
420 K, 40131 kPa	865.3
420 K, 45134 kPa	906.89
420 K, 50138 kPa	945.57
420 K, 55142 kPa	981.83
420 K, 60145 kPa	1016
420 K, 70152 kPa	1079.3
420 K, 80159 kPa	1137
420 K, 90166 kPa	1190.3
420 K, 100173 kPa	1240
430 K, 5105.6 kPa	236.47
430 K, 5355.3 kPa	258.17
430 K, 5606 kPa	273.03
430 K, 5855.6 kPa	287.25
430 K, 6106.3 kPa	300.07
430 K, 6356.3 kPa	311.9
430 K, 6606.6 kPa	323.01
430 K, 7106.8 kPa	343.37
430 K, 7106.9 kPa	343.37
430 K, 7607.2 kPa	361.85
430 K, 8107.5 kPa	378.83
430 K, 8607.8 kPa	394.6
430 K, 9108.1 kPa	409.36
430 K, 9608.5 kPa	423.28
430 K, 10109 kPa	436.47
430 K, 11110 kPa	461
430 K, 12110 kPa	483.55
430 K, 13111 kPa	504.47
430 K, 14112 kPa	524.06
430 K, 15113 kPa	542.49
430 K, 17614 kPa	584.59
430 K, 20116 kPa	622.27
